Experimental data as given in patent US4540664A, “Method of saccharifying cellulose” (The United States of America as represented by the United …, priority 1983, dated 1985).

System: extracellular cellulase of Clostridium thermocellum ATTC 27405
Assay: Saccharification of Avicel by desalted cellulase, followed by the decrease in turbidity at 660 nm
Format: biochemical
Settings: Avicel substrate
Procedure: In these experiments 50 μg of the protein that had been desalted by passage through the gel filtration resin was incubated with 3 mg of the substrate in 3 ml of substrate buffer. The buffer was 0.1M succinic acid/NaOH with a pH of 5.5. The suspension was diluted to 5 ml. No Ca^2+ was added. The cellulase activity was monitored by the decrease in turbidity of the suspension measured at 660 nm. By this method, the turbidity of the suspension decreases as more cellulose is saccharified, and less light is absorbed.
The reaction conditions were the same as for the samples used in FIG. 1 except that each sample included 5 mM DTT and either no additions, 10 mM EDTA, 7 mM CaCl2, or 7 mM MgCl2.

O=C(O)CN(CCN(CC(=O)O)CC(=O)O)CC(=O)O [EDTA]
effect of EDTA on saccharification (10 mM EDTA, 5 mM DTT, 0.1M succinic acid/NaOH pH 5.5 (FIG. 2)): completely inhibits saccharification

O[C@H](CS)[C@H](O)CS (racemic) [DTT, dithiothreitol]
effect of DTT on extent and duration of saccharification (2 mM DTT, no Ca2+ added, pH 5.5, compared with no reducing agent (FIG. 1)): saccharification continues over 90 hours and is much more extensive | effect of DTT on rate of saccharification (5 mM DTT, no Ca2+ added, pH 5.5 (FIG. 1)): rate of saccharification is greater
